# Values quoted from earlier work as cited in publication PMC4310808 (European journal of medicinal chemistry, 2014).
# No end group written: not given here.
# Tested on: erythrocytes
sequence,measurement,value
"GIINTLQKYYCRVRGGRCAVLSCLPKEEQIGKCSTRGRKCCRRKK (also: bicyclic or more (positions not given here)) [HβD-3, Human beta defensin-3]",Hemolytic activity at physiological salt concentrations,no hemolytic activity
